The text below walks through data of patent publication US20260209220A1, “SUBSTITUTED TETRAHYDROPYRROLO-PYRIDINONE COMPOUNDS AND THEIR USE IN TREATING MEDICAL CONDITIONS” (Karuna Therapeutics, Inc., priority 2022, published 2026).

The target in test [1] is T1, hM4 receptors (Homo sapiens, UniProt P08173).
T1 construct: expressed in transfected cells; host or cells: CHO cells
T1 sequence (P08173 1-479): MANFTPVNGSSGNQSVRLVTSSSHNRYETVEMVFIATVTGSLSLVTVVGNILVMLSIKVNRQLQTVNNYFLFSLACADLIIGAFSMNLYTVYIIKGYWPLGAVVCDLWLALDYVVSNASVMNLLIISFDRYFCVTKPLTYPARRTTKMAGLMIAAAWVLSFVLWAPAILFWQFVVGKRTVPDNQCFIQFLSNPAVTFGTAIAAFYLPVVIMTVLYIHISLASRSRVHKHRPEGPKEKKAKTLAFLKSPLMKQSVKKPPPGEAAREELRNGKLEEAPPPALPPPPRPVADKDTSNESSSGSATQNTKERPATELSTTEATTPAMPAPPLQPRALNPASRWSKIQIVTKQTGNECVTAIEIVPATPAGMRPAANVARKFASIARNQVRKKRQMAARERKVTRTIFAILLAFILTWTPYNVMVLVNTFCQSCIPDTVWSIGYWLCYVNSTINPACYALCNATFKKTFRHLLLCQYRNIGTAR
Nature of the test: Human M4 PAM PERK assay (CHO cells, TR-FRET, with EC20 acetylcholine). Format: cell-based. In a few lines:
(§1)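 CHO cells expressing human or rat M4, serum-starved 4 h, then given compound (10-point, 10 μM top, ½-log) with EC20 acetylcholine (10 nM final) for 5 min at 37 °C. Lysates assayed for phospho-ERK by TR-FRET after 2 h detection at RT.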

For test [2], the target named is T2, human M4 receptor (Homo sapiens, UniProt P08173).
T2 construct: expressed in transfected cells; host or cells: CHO-K1 cells (membranes)
T2 sequence (P08173 1-479): T1 sequence (P08173 1-479)
Nature of the test: M4 GTPγS PAM assay (CHO-K1 membranes, 35S-GTP binding, with EC20 acetylcholine). In kind it is biochemical. The settings on record: with EC20 acetylcholine (40 nM). The method, then:
The M4 GTPγS PAM method was used. Membranes were prepared for GTPgS binding assays from CHO-K1 cells stably expressing human M4 receptor. Briefly, cells were grown in 5-layer cell culture flasks. Cells were washed with 50 mL of PBS and then dissociated with 0.05% trypsin. Dissociated cells were then collected by centrifugation at 650×g for 8 minutes at 4° C. Pellets were washed again in PBS by centrifugation and resuspended in 30 mL of 20 mM HEPES, 10 mM EDTA, pH 7.4. After sitting on ice for 30 min, membranes were collected by centrifugation at 50000×g for 15′ at 4° C., resuspended in 30 mL of 20 mM HEPES, 0.1 mM EDTA, pH 7.4 and collected again by centrifugation. Pellets were then washed twice by centrifugation in 30 mL of 20 mM HEPES, pH 7.4, and stored at −80° C. until the day of the assay. On the day of the assay, pellets were thawed on ice and resuspended in 1 mL of 20 mM HEPES, pH 7.4, 10 mM MgCl2, 100 mM NaCl using dounce homogenization. Membrane protein concentration is determined by BCA protein assay (Promega, Madison, WI) according to Promega guidelines.
On the day of the assay, serial dilutions of test PAM compounds were brought up in assay buffer (20 mM HEPES, 10 mM MgCl2, 100 mM NaCl) at 4X final assay concentration. […] of membrane homogenates (containing […] of membrane protein) were prepared in assay buffer supplemented with GDP at […] final assay concentration (final assay concentration of GDP is 5 μM for M2 and 0.1 μM for M4) and dispensed into 96 well polypropylene, U-bottom Greiner plates. 25 ml of vehicle or test PAM compound at 4× of final assay concentration diluted in the assay buffer were added to membrane and plates are incubated for 10-15 minutes at room temperature with gentle shaking. Then, […] of EC20 acetylcholine in assay buffer at 4× final assay concentration was added to assay plates (EC20 final assay concentrations was 40 nM for human M4).
Plates were then incubated, with shaking, for an additional 10-15 minutes. […] of 0.4 nM 35S-GTP (Perkin Elmer, Waltham, MA) in assay buffer was added to assay mixtures. The binding reaction is left on the shaker for 1 hour at room temperature. Membranes in assay reactions were then transferred to GF/C filter plates (Unifilter, Perkin Elmer) and washed three times using a FilterMate Harvester (Perkin Elmer) with cold assay buffer containing no GDP. Filter plates were then dried at 40° C. overnight followed by the addition of […] of Beta Plate Scintillation liquid. Plates are top and bottom sealed before being read on TopCount scintillation counter (Perkin Elmer, Waltham, MA).

The target of test [3] is T3, rM4 receptors (Rattus norvegicus, UniProt P08485).
T3 construct: expressed in transfected cells; host or cells: CHO cells
T3 sequence (P08485 1-478): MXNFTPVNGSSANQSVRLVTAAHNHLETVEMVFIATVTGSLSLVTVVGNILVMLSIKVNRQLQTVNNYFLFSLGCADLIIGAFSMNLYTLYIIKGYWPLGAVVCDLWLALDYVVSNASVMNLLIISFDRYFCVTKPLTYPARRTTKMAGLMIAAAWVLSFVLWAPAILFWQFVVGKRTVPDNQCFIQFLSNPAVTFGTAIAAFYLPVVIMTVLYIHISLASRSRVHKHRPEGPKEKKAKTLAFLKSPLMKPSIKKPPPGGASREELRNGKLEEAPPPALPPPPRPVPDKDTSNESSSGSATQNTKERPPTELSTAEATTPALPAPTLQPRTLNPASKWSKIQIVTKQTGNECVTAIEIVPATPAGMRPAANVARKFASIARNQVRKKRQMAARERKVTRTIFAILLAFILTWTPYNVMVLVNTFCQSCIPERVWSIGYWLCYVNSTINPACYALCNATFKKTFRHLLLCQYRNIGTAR
Put plainly: Rat M4 PAM PERK assay (CHO cells, TR-FRET, with EC20 acetylcholine). Format: cell-based. The method in brief: as §1
On the technique in general: In TR-FRET formats the signal depends on donor and acceptor labels being close together.

Usually EC50 stands for the concentration needed to bring the measured effect to its halfway point. Read a high EC50 as a need for much substance. Consider `Cc1cc(=O)n(C)c2c1CN(C(=O)CC1CN(c3ccc(C#N)c(C(F)(F)F)c3)C1)C2` [Compound I-27], for which the EC50 in test [1], in test [2] and in test [3] was 50 to 200 nM throughout.

`Cc1cc(=O)n(C)c2c1CN(C(=O)CC1CN(c3nc(C(F)(F)F)ns3)C1)C2` [Compound I-28]: the EC50 in test [1], in test [2] and in test [3] was 200 to 1000 nM each time.

Turning to `Cc1cc(=O)n(C)c2c1CN(C(=O)CC1CN(c3ncc(C(F)(F)F)s3)C1)C2` [Compound I-29], the results for the EC50 in test [1], in test [2] and in test [3] were 50 to 200 nM, 50 to 200 nM and 200 to 1000 nM, respectively.

With `Cc1cc(=O)n(C)c2c1CN(C(=O)CC1CN(c3cnnc(C(F)(F)F)c3)C1)C2` [Compound I-30], the EC50 lay within 50 to 200 nM in test [1], 200 to 1000 nM in test [2] and 50 to 200 nM in test [3].

Consider `Cc1cc(=O)n(C)c2c1CN(C(=O)CC1CN(c3nc(C(F)(F)F)cs3)C1)C2` [Compound I-31], for which the figures for the EC50 in test [1], in test [2] and in test [3] were 50 to 200 nM, 200 to 1000 nM and 50 to 200 nM, respectively.

Consider `Cc1cc(=O)n(C)c2c1CN(C(=O)CC1CN(c3cccc(F)c3C)C1)C2` [Compound I-33], for which the EC50 in test [1] lay within 50 to 200 nM; in test [2], 200 to 1000 nM; in test [3], 200 to 1000 nM.

For `Cc1cc(=O)n(C)c2c1CN(C(=O)CC1CN(c3cnn(C(F)(F)F)c3)C1)C2` [Compound I-34], the EC50 in test [1], in test [2] and in test [3] was above 1000 nM each time.

On to `Cc1cc(=O)n(C)c2c1CN(C(=O)CC1CN(c3nc(C4CC4)ns3)C1)C2` [Compound I-35], for which the EC50 in test [1], in test [2] and in test [3] was 50 to 200 nM throughout.

`Cc1cc(=O)n(C)c2c1CN(C(=O)CC1CN(c3cc(F)cc(F)c3)C1)C2` [Compound I-36]: the results for the EC50 in test [1], in test [2] and in test [3] were below 50 nM, below 50 nM and 200 to 1000 nM, respectively.

For the compound `Cc1cc(=O)n(C)c2c1CN(C(=O)CC1CN(c3cnn(C4CC4)c3)C1)C2` [Compound I-37], the EC50 in test [1] is 200 to 1000 nM; in test [2], 200 to 1000 nM; in test [3], above 1000 nM.

For the compound `COc1cc(N2CC(CC(=O)N3Cc4c(C)cc(=O)n(C)c4C3)C2)cc(C(F)(F)F)n1` [Compound I-39, 6-(2-(1-(2-Methoxy-6-(trifluoromethyl)pyridin-4-yl)azetidin-3-yl)acetyl)-1,4-dimethyl-1,5,6,7-tetrahydro-2H-pyrrolo[3,4-b]pyridin-2-one], the EC50 in test [1] is 50 to 200 nM; in test [2], 200 to 1000 nM; in test [3], 200 to 1000 nM.

For `Cc1c2c(n(C)c(=O)c1C)CN(C(=O)CC1CN(c3ccc(C(F)(F)F)cc3)C1)C2` [Compound I-43], the half-maximal effective concentration (EC50) in test [1] is 50 to 200 nM; in test [2] it was below 50 nM; in test [3] it was 50 to 200 nM.

On to `Cc1c2c(n(C)c(=O)c1C)CN(C(=O)CC1CN(c3ncns3)C1)C2` [Compound I-44], for which the EC50 in test [1] is below 50 nM; in test [2], 50 to 200 nM; in test [3] it was 200 to 1000 nM.

For the compound `Cc1c2c(n(C)c(=O)c1C)CN(C(=O)CC1CN(c3ccc(C#N)cc3)C1)C2` [Compound I-45], the EC50 in test [1] was below 50 nM; in test [2], below 50 nM; in test [3] it was 50 to 200 nM.

With `Cc1c2c(n(C)c(=O)c1C)CN(C(=O)CC1CN(c3ccc(F)c(C4CC4)c3)C1)C2` [Compound I-55], the EC50 in test [1] was in the range of 200 to 1000 nM; in test [2], 50 to 200 nM; in test [3], 50 to 200 nM.

`Cc1c2c(n(C)c(=O)c1C)CN(C(=O)CC1CN(c3cc(F)cc(F)c3)C1)C2` [Compound I-56]: the results for the EC50 in test [1], in test [2] and in test [3] were below 50 nM, 50 to 200 nM and 50 to 200 nM, respectively.

Regarding `Cc1c2c(n(C)c(=O)c1C)CN(C(=O)CC1CN(c3cnc(C4CC4)cn3)C1)C2` [Compound I-58], the EC50 in test [1], in test [2] and in test [3] was 50 to 200 nM throughout.

As to `Cc1c2c(n(C)c(=O)c1C)CN(C(=O)CC1CN(c3ccc(C(C)(C)O)c(F)c3)C1)C2` [Compound I-59], the EC50 in test [1] is below 50 nM; in test [2], below 50 nM; in test [3] it was 50 to 200 nM.

In the case of `Cc1c2c(n(C)c(=O)c1C)CN(C(=O)CC1CN(c3ccc(F)c(OC4CC4)c3)C1)C2` [Compound I-63, 6-(2-(1-(3-cyclopropoxy-4-fluorophenyl)azetidin-3-yl)acetyl)-1,3,4-trimethyl-1,5,6,7-tetrahydro-2H-pyrrolo[3,4-b]pyridin-2-one], the EC50 is 200 to 1000 nM in test [1], below 50 nM in test [2] and 200 to 1000 nM in test [3].

As for `Cc1c2c(n(C)c(=O)c1C)CN(C(=O)CC1CN(c3nc(C(F)(F)F)c(C4CC4)s3)C1)C2` [Compound I-64, 6-(2-(1-(5-Cyclopropyl-4-(trifluoromethyl)thiazol-2-yl)azetidin-3-yl)acetyl)-1,3,4-trimethyl-1,5,6,7-tetrahydro-2H-pyrrolo[3,4-b]pyridin-2-one], the EC50 in test [1] fell in the range of 50 to 200 nM; in test [2], 50 to 200 nM; in test [3] it was 200 to 1000 nM.

As to `Cc1c2c(n(C)c(=O)c1C)CN(C(=O)CC1CN(c3nc(C4CC4)c(C(F)(F)F)s3)C1)C2` [Compound I-65, 6-(2-(1-(4-cyclopropyl-5-(trifluoromethyl)thiazol-2-yl)azetidin-3-yl)acetyl)-1,3,4-trimethyl-1,5,6,7-tetrahydro-2H-pyrrolo[3,4-b]pyridin-2-one], the EC50 in test [1] was 200 to 1000 nM; in test [2], below 50 nM; in test [3] it was 200 to 1000 nM.

`Cc1c2c(n(C)c(=O)c1Cl)CN(C(=O)CC1CN(c3ccnc(C(F)(F)F)c3)C1)C2` [Compound I-66, 3-Chloro-1,4-dimethyl-6-(2-(1-(2-(trifluoromethyl)pyridin-4-yl)azetidin-3-yl)acetyl)-1,5,6,7-tetrahydro-2H-pyrrolo[3,4-b]pyridin-2-one]: the EC50 was below 50 nM in test [1], below 50 nM in test [2] and 50 to 200 nM in test [3].

For the compound `Cc1c2c(n(C)c(=O)c1Cl)CN(C(=O)CC1CN(c3ccc(C(F)(F)F)cc3)C1)C2` [Compound I-68], the EC50 in test [1], in test [2] and in test [3] was below 50 nM each time.

Take `Cc1c2c(n(C)c(=O)c1Cl)CN(C(=O)CC1CN(c3ccc(C(F)(F)F)nc3)C1)C2` [Compound I-78]: the figures for the EC50 in test [1], in test [2] and in test [3] were below 50 nM, 50 to 200 nM and 50 to 200 nM, respectively.
